# Assay results taken from patent publication EP0873137B1, “COMPOSITIONS INCLUDING CALCIUM INFLUX BLOCKERS FOR INHIBITING CELL GROWTH” (The Wellesley Hospital Foundation, priority 1996, dated 1997).
# Key:
# [1] = test system: Bone marrow derived mast cells (BMMC); experiment: Cell death assay (Trypan blue exclusion) in BMMC; format: cell-based; conditions: 24 hours
# Method: Cytotoxicity assays were performed as described in Materials and Methods. In Figures 1A to 1C, BMMCs were incubated with either SLF (500ng/ml in all cases) (circles) or IL-3 (25% WEHI-3 conditioned medium in all cases) (squares) with the indicated amounts of ketotifen (Figure 1A), econazole (Figure 1B) or Ni^2+ (Figure 1C). In Figure 1D, BMMCs were incubated with IL-3, and the indicated amounts of SLF. Plotted circles also included 2.5mM Ni^2+ and plotted squares included no Ni^2+. In Figure 1E, BMMCs were coated with IgE anti-DNP monoclonal SPE-7, then incubated with IL-3 plus the indicated amounts of DNP-HSA (Ag), with 5µM econazole (circles) or without econazole (squares). In Figure 1F, BMMCs were incubated with IL-3 plus the indicated amounts of Substance P, with 5µM econazole (circles) or without econazole (squares). In all cases, the proportion of dead cells was determined after 24 hours in culture by counting cells that could or could not exclude Trypan blue. Error bars represent the standard error determined from triplicate measurements.
# (§1) Cells. Bone marrow derived mast cells (BMMC) were generated as described previously (Berger et al., 1994). They were cultured in OPTI-MEM (Gibco, Burlington, ON) supplemented with 10% heat-inactivated FBS and 2% WEHI-3 supernatant as a source of IL-3. 32D-kit cells (gift from Dr. Mark Minden, Ontario Cancer Institute) are an IL-3-dependent myelomonocytic cell line expressing c-kit (Hu et al., 1995). 32D-kit cells were grown in RPMI (Gibco) supplemented with 10% heat-inactivated FBS, 2% WEHI-3 supematant, and 1 mg/ml G418 (Gibco). The p815 cell line is a murine mastocytoma cell line. P815 cells were grown in RPMI supplemented with 10% heat-inactivated FBS. Bcl-2 gp+e NIH 3T3 packaging cells were grown in Dulbecco's modified Eagle's medium (DMEM - Gibco) and supplemented with 10% FBS and 2 µg/ml puromycin (Sigma, St. Louis, Mo). All cell cultures also contained 55µM β-mercaptoethanol and antibiotics (both Sigma). SK-BR3, MDA-MB231 and MCF-7 cells were obtained from ATCC. SK-BR3 and MDA-MB231 cells were cultured in RPMI medium supplemented with 10% heat inactivated fetal bovine serum. MCF-7 cells were cultured in DMEM medium supplemented with 10% heat inactivated fetal bovine serum and 10 µg/ml human insulin (Sigma).
# (§2) Cell death assays. 2.5 X 10^4 BMMCs, 32D-kit or P815 cells were placed in 96-well flat bottom plates in a volume of 0.1 ml RPMI containing 0.5% FBS. Cells were supplemented with either SLF, Substance P or IL3 plus Ca^2+ channel blocker. In the case of adding IgE, cells were incubated with 10 µg/ml SPE-7 for 45 minutes at 4°C followed by 3 washes with RPMI, 0.5% FBS before plating in 96 well plates and adding 100 ng/ml DNP-HSA. The proportion of dead cells was determined after 18 or 24 hours in culture by counting cells that could or could not exclude Trypan blue.
# 32D-kit cells = experiment: Cell death assay (Trypan blue exclusion) in 32D-kit cells; format: cell-based
# Method: Figures 2A and 2B show induction of cell death in 32D-kit or p815 cells with SLF plus Ca^2+ influx blockers. 32D-kit (Figure 2A) or p815 (Figure 2B) cells were incubated with either SLF (solid bars) or IL-3 (striped bars) plus the indicated concentration of Ca^2+ influx blocker. Cell death was determined by Trypan Blue exclusion after 18 hours in culture.
# 32D-kit cells were incubated for 18 hours with SLF and 5µM econazole and oleic acid (solid bars), or with SLF and 5µM econazole and elaidic acid (hatched bars), or IL-3 and 5 µM econazole and oleic acid (stippled bars). The proportion of dead cells was determined by Trypan Blue exclusion.
# (§3) Figures 6A and 6B show the effect of ionomycin on apoptosis induced by SLF and Ca^2+ influx blacker. In Figure 6A, 32D-kit cells were incubated for 18 hours with 5µM econazole and the indicated amounts of ionomycin in the presence of either SLF (circles) or IL-3 (squares). In Figure 6B, 32D-kit-Bcl-2 cells were incubated for 18 hours with 5µM econazole and the indicated amounts of ionomycin in the presence of either SLF (circles) or IL-3 (squares). The proportion of dead cells was determined by Trypan Blue exclusion.
# (§4) In additional cultures, IL-3 alone or no factor was added and cell viability was similarly tested. The effect on cell viability of adding 25 or 250 µM YVAD-CHO was also evaluated in separate cultures in which no additional factors were added.
# 32D-kit cells were incubated with either SLF in the absence of YVAD-CHO (circles), or with SLF in the presence of 25 µM YVAD-CHO. (triangles), or IL-3 (squares) with the indicated amounts of econazole. The proportion of dead cells was evaluated by Trypan Blue exclusion after 18 hours in culture
# as §1, §2
# 32D-kit-Bcl-2 cells = experiment: Cell death assay (Trypan blue exclusion) in Bcl-2 over-expressing 32D-kit cells; format: cell-based; conditions: 5µM econazole, 18 hours, Figure 6B
# Method: as §3, §4
# Generation of Bcl-2 over-expressing 32D-kit cells. gp + e bcl-2 retroviral producer cells were a gift from Dr. Y. Ben-David (Toronto) and contain an LXSN-based retroviral vector expressing genes for both puromycin resistance and murine bcl-2. For infection, a confluent layer of gp + e packaging cells were co-cultured with 32D-kit cells for 24 hours. Non-adherent 32D-kit cells were then removed, cultured for 48 hours and then selected for bcl-2 over-expressing cells in the presence of 2µg/ml puromycin.
# as §2
# MDA-MB-231 cells = experiment: Cell death in autocrine stimulated MDA-MB-231 breast cancer cells; format: cell-based, human; conditions: 20µM econazole; YVAD-CHO 10 or 100 µM, ionomycin 0.1 nM to 1 µM, oleic acid 10 or 100 µM
# Method: Bar 1: control; Bar 2: 20µM econazole; Bar 3: 20µM econazole and 10µM YVAD-CHO (ICE inhibitor); Bar 4: 20µM econazole and 100 µM YVAD-CHO; Bar 5: 20µM econazole and 0.1 nM ionomycin (calcium ionophore); Bar 6: 20µM econazole and 10 nM ionomycin; Bar 7: 20µM econazole and 1 µM ionomycin; Bar 8: 20µM econazole and 10 µM oleic acid (PLC activation inhibitor); and Bar 9: 20µM econazole and 100 µM oleic acid.
# as §1
# The MDA-MB-231 cell line is a highly anaplastic carcinoma of the breast. it too is tumorigenic in nude mice but expresses only low levels of erbB2. However it is FGF^R positive and is stimulated in an autocrine fashion by bFGF (el Yazidi et al., 1995). Experiments were carried out to determine the susceptibility of MDA-MB-231 cells to a Ca^2+ influx blocker and the influence of oleic acid, ionomycin, and YVAD-CHO on induction of cell death by the blocker. The results are summarized together in Figure 9B.
# 32D-kit leukemia cells = experiment: 32D-kit leukemia in mice, SLF intravenously: G418-resistant spleen colonies in agar; format: in vivo
# Method: Mice were inoculated intravenously with 1 X 10^7 G418-resistant 32D-kit cells. Between 3 and 5 weeks following the inoculation (Experiments 1 & 3; 5 weeks, experiment 2; 3 weeks), mice were given 100mg/kg ketotifen by oral gavage. Four hours following the ketotifen treatment, mice were injected with 15µg SLF intravenously. Two hours later the mice were given a further 100mg/kg ketotifen p.o. The following day, spleens were removed and assayed for the presence of leukemic cells by plating cells in 0.3% agar in growth medium containing 20% WEHI-3 conditioned medium and 1 mg/ml G418 to limit detection to the G418-resistant leukemic cells. Seven days later, colonies were enumerated.
# (§5) Mice. For the in vivo 32D-kit experiments, mice were male C3H/ he mice 6 to 8 weeks old and obtained from Charles River Laboratories, Boston, Massachusetts. Mice were inoculated intravenously with 1 x 10^7 leukemic cells. Between 3 and 5 weeks following the inoculation, mice were given 100 mg/kg ketotifen (Sigma) in a volume of 0.4 ml water by oral gavage, Following the first ketotifen treatment, mice were injected intravenously or subcutaneously with 15 µg SLF in PBS. A second ketotifen treatment followed administration of SLF.
# (§6) In order to determine the efficacy of the combination of a Ca^2+ influx blocker with an activating signal in vivo, mice inoculated with factor-dependent and G418-resistant 32D-kit leukemia cells were treated with a combination of ketotifen and SLF. In one set of experiments, spleen cells were removed and assayed for the presence of leukemic cells by plating cells in agar in growth medium containing 20% WEHI-3 conditioned medium and 1mg/ml G418 to limit detection to the G418-resistant leukemic cells. […] The number of G418-resistant colonies detected in animals that were injected with SLF only tended to be higher than those not receiving the factor, varying between 65 and 31,000 with an arithmetic average of 7,399, and a geometric mean of 1,545 colonies/spleen. […]
# [2] = test system: all cells capable of forming colonies in agar in response to IL-3; experiment: 32D-kit leukemia in mice, SLF intravenously: all IL-3-dependent spleen colonies in agar; format: in vivo; conditions: ketotifen 100mg/kg p.o. twice, SLF 15µg intravenously; leukemic as well as normal cells
# Method: Figure 11B is similar to Figure 11A, but in this case spleen cells were assayed for the presence of all cells capable of forming colonies in agar in response to IL-3, to include leukemic as well as normal cells.
# as §5
# as §6, with “SLF.” for “SLF. In one set of experiments, spleen cells were removed and assayed for the presence of leukemic cells by plating cells in agar in growth medium containing 20% WEHI-3 conditioned medium and 1mg/ml G418 to limit detection to the G418-resistant leukemic cells.”
# [3] = co-incubated with SLF (500ng/ml), Figures 1A-C
# [4] = stimulated with IgE plus antigen (DNP-HSA), with IL-3, 5µM econazole in Figure 1E
# [5] = SLF and 5µM econazole, 18 hours
# [6] = ketotifen 100mg/kg p.o. twice, SLF 15µg intravenously, spleens next day
molecule,measurement,setting,value
[Ni+2] [Ni^2+],cell death,[1]; [3],converted to a death signal
same,cell death,[1]; [4],combine with IgE receptor cross-linking to induce cell death
"CCCCCCCC/C=C/CCCCCCCC(=O)O [elaidic acid, trans-9-octadecenoic acid]",rescue/protection from cell death induced by SLF and Ca^2+ influx blocker,32D-kit cells; [5],not
C[C@H](CCC(=O)O)C[C@H](C)C[C@H](C)C(=O)/C=C(\O)[C@H](C)C[C@H](C)C/C=C/[C@@H](C)[C@@H](O)[C@@H](C)[C@@H](O)C[C@@H]1CC[C@@](C)([C@H]2CC[C@@](C)([C@@H](C)O)O2)O1 [ionomycin],cell death at higher concentrations of ionomycin,32D-kit cells; [5],restoration of cell death
same,rescue/protection from cell death induced by SLF and Ca^2+ influx blocker,32D-kit cells; [5],protects
same,concentration of maximal protection,"32D-kit cells; SLF and 5µM econazole, 18 hours, Figure 6A",10 nM
same,cell death at higher levels of ionomycin,32D-kit-Bcl-2 cells,did not demonstrate significant cell death
same,protection from apoptosis by SLF plus blocker,32D-kit-Bcl-2 cells; low levels of ionomycin,similarly protected from apoptosis
same,protection from death induced by the Ca^2+ influx blocker,MDA-MB-231 cells,can protect
CN1CCC(=C2c3ccccc3CC(=O)c3sccc32)CC1 [ketotifen],cell death,[1]; [3],converted to a death signal
same,cell death,[1]; [4],combine with IgE receptor cross-linking to induce cell death
same,activity on the leukemic cells in vivo,32D-kit leukemia cells; SLF intravenously,little activity
same,"G418-resistant colonies, arithmetic average",32D-kit leukemia cells; [6],"5,502 colonies/spleen"
same,"G418-resistant colonies, geometric mean",32D-kit leukemia cells; [6],849 colonies/spleen
same,"IL-3-dependent colonies, arithmetic average",[2],"7,715 colonies/spleen"
same,"IL-3-dependent colonies, geometric mean",[2],"2,320 colonies/spleen"
"CCCCCCCC/C=C\CCCCCCCC(=O)O [oleic acid, cis-9-octadecenoic acid]",range of effectiveness (rescue from cell death),32D-kit cells; [5],1 to 100 µM
same,rescue/protection from cell death induced by SLF and Ca^2+ influx blocker,32D-kit cells; [5],rescued from cell death
same,protection from death induced by the Ca^2+ influx blocker,MDA-MB-231 cells,can protect
COc1ccc(CCN(C)CCCC(C#N)(c2ccc(OC)c(OC)c2)C(C)C)cc1OC (stereo not drawn) [verapamil],inducing cell death,"32D-kit cells; combined with SLF, not shown, cell type not stated",ineffective in inducing cell death
YVAD-CHO,resistance to apoptosis induced by SLF plus econazole,"32D-kit cells; 25 µM YVAD-CHO, 18 hours, Figure 8",provides resistance
same,protection from apoptosis induced by factor withdrawal,"32D-kit cells; 25 or 250 µM YVAD-CHO, Figure 7B",fails to protect
same,protection from apoptosis induced by the topoisomerase inhibitor etoposide,32D-kit cells; not shown,protects
same,protection from death induced by the Ca^2+ influx blocker,MDA-MB-231 cells,can protect
